Our source for the IC50 values is patent publication US20240199624A1, “COMPOUNDS, COMPOSITIONS, AND METHODS” (CHDI Foundation, Inc., priority 2022, published 2024).

The target in experiment [1] is T1, human MutSbeta (Homo sapiens, UniProt P20585+P43246).
T1 construct: Msh2(1-934), Gene ID NP_000242.1; Msh3(1-1137), Gene ID J04810.1
The experiment can be described thus: P33 SPA. The class given is biochemical. To be noted: ATP added to compounds first, then enzyme with DNA; 2 μM ATP, 7 nM enzyme, 60 min 37° C. The procedure: (§1) P33 SPA: Enzyme human MutSbeta (Msh2(1-934), Gene ID NP_000242.1, Msh3(1-1137), Gene ID J04810.1) and 22 bp biotin-labeled DNA containing a GT-mismatch (purchased from Curia Global, TOP 5′-[…]-3′; BOT 3′-AGTAGCTAGGC - - - CGAAGTCTACC-5′-Biotin) were pre-incubated at equimolar concentration for 15 min at room temperature (“RT”) in assay buffer (25 mM HEPES pH=7.5, 150 mM KCl, 2 mM MgCl2, 2 mM GSH, 0.01% Tween-20). ATP (10 μL, 2× final concentration of γ-[^33P]-ATP (final 0.1 nM; Hartmann Analytic, FF-301) and cold ATP (final 2 μM)) was added to compounds (400 nL spotted as concentration response in 100% DMSO into wells of an OptiPlate) and pre-incubated for 30 min at RT. Then, enzyme with DNA was added (10 μL, 2× final concentration of 7 nM) and incubated for 60 min at 37° C. in a total volume of 20 μL per well. Decay of [^33P] with a half-life of 25.4 days was corrected by increasing the concentration of the labelled nucleotide with the appropriate factor; all steps with radioactive ATP were conducted behind appropriate shielding. Then, 20 μL of a 1:2 mix of ammonium molybdate (20 mg/mL Ammonium molybdate in 2.4 M HCl) and SPA beads (ProteinA SPA beads from Perkin Elmer Cat #RPNQ0019 at 7.5 mg/mL+1% azide) was added per well and incubated at RT for 2 min. Then, 40 μL of 7 M CsCl and 0.1 M citrate was added per well and incubated for 20 h at RT before measuring on the MicroBeta (top read mode, 1 min per well). For full plate processing, all reagents were transferred with a pipettor (Selma, CyBio) apart from the final reagent (CsCl+citrate) which was added with a dispenser (MultiFlo, BioTek). Data analysis during assay development was done with Prism GraphPad.

The target of experiment [2] is T1, human MutSbeta. The experiment can be described thus: ADP Glo assay 1.1. The class given is biochemical. To be noted: SPA buffer, no Ovalbumin; enzyme added to compounds before ATP; read-out: ADP Gol 1.1 assay IC50. As for the experimental part: (§2) ADP Glo assay 2.1: Enzyme human MutSbeta (Msh2(1-934), Gene ID NP_000242.1, Msh3(1-1137), Gene ID J04810.1) with 22 bp biotin-labeled DNA containing a GT-mismatch (purchased from Curia Global, TOP 5′-[…]-3′; BOT 3′-AGTAGCTAGGC - - - CGAAGTCTACC-5′-Biotin) was pre-incubated in assay buffer (25 mM HEPES pH=7.5, 150 mM KCl, 5 mM MgCl2, 5 mM GSH, 0.1% Pluronic F-127, 0.2% Ovalbumin) to allow formation of the enzyme-DNA complex. Plates with spotted compounds in serial dilutions in DMSO (80 nL) were filled with ATP (2 μL, 10 μM final concentration) followed by an incubation of 30 min at RT. Then, enzyme was added (2 μL, 7 nM final concentration) and the reaction was allowed to proceed for 60 min at 37° C. After the ATPase reaction, the commercially available “ADP-Glo Reagent” was added (incubate 40 min at RT) to deplete remaining ATP via the activity of […]. Subsequently, the commercially available “Kinase Detection Reagent” converted ADP to ATP via the activity of PEP and Pyruvate kinase. The ATP was then converted into light by Ultra-Glo Luciferase. The obtained luminescence was proportional to the ADP concentration generated during the initial ATPase reaction. The luminescence signal was measured with an Envision reader, raw data were analyzed towards controls (full reaction=0% inhibition; no reaction in absence of enzyme=100% inhibition) and IC50 curves were analyzed with the inhouse software Aplus.
ADP Glo assay 1.1: The ADP Glo 2.1 assay was adapted to enable assessment of a more direct interaction of the compound with the enzyme: (1) the SPA buffer was applied (25 mM HEPES pH=7.5, 150 mM KCl, 2 mM MgCl2, 2 mM GSH, 0.01% Tween-20) which contained no decoy Ovalbumin protein. (2) The order of reagent addition was changed, and enzyme was now added directly to the spotted compounds before addition of ATP.
Background: ADP-Glo turns the ADP formed in a reaction into a luminescent signal.

The target in experiment [3] is T1, human MutSbeta. Briefly: ADP Glo assay 2.1. The class given is biochemical. To be noted: 10 μM ATP, 7 nM enzyme; buffer with 5 mM GSH, 0.2% Ovalbumin. The procedure: as §2
Experiment [4] in a line: P33 SPA counter assay (absence of enzyme). To be noted: interference with detection system. The procedure: P33 SPA counter assay: This assay was used in the absence of enzyme to determine whether the test compound interferes with the detection system. Otherwise, the same protocol and assay buffer as in the main SPA assay were applied (25 mM HEPES pH=7.5, 150 mM KCl, 2 mM MgCl2, 2 mM GSH, 0.01% Tween-20) and instead of enzyme addition, assay buffer was added. Hydrolysis of substrate (γ-[^33P]-ATP, 0.1 nM; Hartmann Analytic, FF-301; and cold ATP, 10 μM) to a similar level as under enzymatic conditions was achieved by incubation at 50° C. for 4 days. Decay of [^33P] with a half-life of 25.4 days was corrected by increasing the concentration of the labelled nucleotide with the appropriate factor; all steps with radioactive ATP were conducted behind appropriate shielding. After addition of pre-treated ATP substrate (10 μL) to the compounds and addition of buffer (10 μL, instead of enzyme), 20 μL of a 1:2 mix of ammonium molybdate (20 mg/mL Ammonium molybdate in 2.4M HCl) and SPA beads (ProteinA SPA beads from Perkin Elmer Cat #RPNQ0019 at 7.5 mg/mL+1% azide) was added per well and incubated at RT for 2 min. Then, 40 μL of 7 M CsCl and 0.1 M citrate was added per well and incubated for 1 h at room temperature before measuring on the MicroBeta (top read mode, 1 min per well). For full plate processing, all reagents were transferred with a pipettor (Selma, CyBio) apart from the final reagent (CsCl+citrate) which was added with a dispenser (MultiFlo, BioTek). Data analysis during assay development was done with Prism GraphPad, and IC50 fitting for whole compound plates was done with the in-house software Aplus.

For experiment [5], the target named is T1, human MutSbeta. Briefly: P33 SPA 1.1. It is filed as biochemical. As for the experimental part:
as §1
P33 SPA 11: For the SPA 1.1 assay, the addition of reagents was reversed, i.e. enzyme was first added to the compounds and pre-incubated followed by ATP addition; thus, the assay was aligned with ADP Glo 1.1 reagent addition order. The assay was repeated under similar conditions, and the results are shown below in Table 5B. It is contemplated the solubility of the compounds and/or varying test occasions may account for variability of assay results.

The target of experiment [6] is T2, human MutSα (Homo sapiens, UniProt P43246+P52701).
T2 construct: Msh2(1-934), Gene ID NP_000242.1; Msh6(1-1360), Gene ID NP_001393725.1
T2 sequence (P43246 whole entry): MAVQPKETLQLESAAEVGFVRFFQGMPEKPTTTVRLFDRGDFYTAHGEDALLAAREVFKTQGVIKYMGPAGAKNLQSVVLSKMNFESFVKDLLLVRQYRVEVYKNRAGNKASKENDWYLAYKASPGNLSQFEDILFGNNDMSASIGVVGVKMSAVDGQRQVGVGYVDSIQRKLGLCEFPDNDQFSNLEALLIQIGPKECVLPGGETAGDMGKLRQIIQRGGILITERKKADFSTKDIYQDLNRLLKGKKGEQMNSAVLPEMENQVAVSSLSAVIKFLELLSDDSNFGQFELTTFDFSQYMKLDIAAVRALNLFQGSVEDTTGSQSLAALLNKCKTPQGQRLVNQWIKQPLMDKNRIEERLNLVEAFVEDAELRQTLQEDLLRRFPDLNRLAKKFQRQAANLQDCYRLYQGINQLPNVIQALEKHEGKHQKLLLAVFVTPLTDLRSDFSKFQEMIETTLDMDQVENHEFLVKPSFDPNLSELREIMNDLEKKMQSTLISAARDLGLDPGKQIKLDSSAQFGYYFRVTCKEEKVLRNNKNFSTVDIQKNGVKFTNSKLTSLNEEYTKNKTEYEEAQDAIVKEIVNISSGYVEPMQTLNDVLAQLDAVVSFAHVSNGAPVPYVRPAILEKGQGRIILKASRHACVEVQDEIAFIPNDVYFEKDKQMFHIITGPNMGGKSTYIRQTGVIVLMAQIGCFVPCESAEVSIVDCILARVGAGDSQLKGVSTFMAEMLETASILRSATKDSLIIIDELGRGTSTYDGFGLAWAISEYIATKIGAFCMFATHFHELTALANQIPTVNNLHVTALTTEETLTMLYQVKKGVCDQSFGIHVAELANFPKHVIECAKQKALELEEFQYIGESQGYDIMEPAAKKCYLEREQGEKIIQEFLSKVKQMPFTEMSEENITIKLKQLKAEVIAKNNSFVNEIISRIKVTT
T2 sequence (P52701 whole entry): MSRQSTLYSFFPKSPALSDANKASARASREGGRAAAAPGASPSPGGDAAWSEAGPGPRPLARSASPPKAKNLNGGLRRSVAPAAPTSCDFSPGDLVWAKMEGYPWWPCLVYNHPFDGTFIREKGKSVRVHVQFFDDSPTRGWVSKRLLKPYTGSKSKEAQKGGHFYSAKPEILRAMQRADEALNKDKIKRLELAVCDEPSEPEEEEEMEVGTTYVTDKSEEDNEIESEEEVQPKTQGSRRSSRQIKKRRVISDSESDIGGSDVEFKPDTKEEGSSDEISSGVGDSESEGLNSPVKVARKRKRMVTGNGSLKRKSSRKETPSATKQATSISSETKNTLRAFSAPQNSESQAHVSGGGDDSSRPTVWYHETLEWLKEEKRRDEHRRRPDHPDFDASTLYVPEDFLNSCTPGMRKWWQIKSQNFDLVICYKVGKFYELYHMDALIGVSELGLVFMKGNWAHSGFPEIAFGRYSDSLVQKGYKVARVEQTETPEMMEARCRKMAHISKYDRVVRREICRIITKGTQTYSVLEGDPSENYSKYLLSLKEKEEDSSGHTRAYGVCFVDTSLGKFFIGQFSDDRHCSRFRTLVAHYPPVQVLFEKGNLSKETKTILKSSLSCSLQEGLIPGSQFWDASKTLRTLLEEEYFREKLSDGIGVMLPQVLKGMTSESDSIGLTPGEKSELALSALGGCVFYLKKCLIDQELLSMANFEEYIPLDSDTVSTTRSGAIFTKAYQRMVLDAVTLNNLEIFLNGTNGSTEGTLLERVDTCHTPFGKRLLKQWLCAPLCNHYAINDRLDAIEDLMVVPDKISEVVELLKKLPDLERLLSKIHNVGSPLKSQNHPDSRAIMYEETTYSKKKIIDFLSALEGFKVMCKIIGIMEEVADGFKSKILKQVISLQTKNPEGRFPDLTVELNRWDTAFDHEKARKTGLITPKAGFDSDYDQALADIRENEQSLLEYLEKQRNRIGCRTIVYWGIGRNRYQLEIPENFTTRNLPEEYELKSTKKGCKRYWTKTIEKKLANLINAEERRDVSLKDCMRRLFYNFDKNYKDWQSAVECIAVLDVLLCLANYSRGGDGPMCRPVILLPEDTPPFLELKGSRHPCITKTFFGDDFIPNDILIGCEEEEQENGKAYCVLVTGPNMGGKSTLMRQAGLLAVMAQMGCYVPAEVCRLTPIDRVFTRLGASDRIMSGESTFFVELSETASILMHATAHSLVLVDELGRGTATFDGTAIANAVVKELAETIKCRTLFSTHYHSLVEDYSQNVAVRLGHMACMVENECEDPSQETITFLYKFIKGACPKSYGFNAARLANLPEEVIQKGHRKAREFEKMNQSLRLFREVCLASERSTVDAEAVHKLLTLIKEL
Briefly: ADP Glo assay with MutSα (2.1). It is filed as biochemical. To be noted: 15 nM MutSα/DNA, 30 μM ATP. As for the experimental part: as §2
ADP Glo assay with MutSα (2.1): The ADP Glo assay version 2.1 with the enzyme human MutSα (Msh2(1-934), Gene ID NP_000242.1, Msh6(1-1360), Gene ID NP_001393725.1) was based on the same principle and protocol steps as the MutSβ assay. A 22 bp biotin-labeled DNA containing a GT-mismatch (purchased from Curia Global, TOP 5′-[…]-3′; BOT 3′-AGTAGCTAGGC - - - CGAAGTCTACC-5′-Biotin) was used for binding to MutSα. For this assay, concentrations of enzyme and ATP were optimized to 15 nM MutSα/DNA and 30 μM ATP.

Experiment [7] concerns the target T1, human MutSbeta. The experiment can be described thus: ADP Glo assay 2.2. The class given is biochemical. To be noted: as 2.1 but buffer with 2 mM GSH. As for the experimental part: as §2
ADP Glo assay 2.2: A similar protocol was used as in the ADP Glo Assay 2.1 above, except the following assay buffer was used: 25 mM HEPES pH=7.5, 150 mM KCl, 5 mM MgCl2, 2 mM GSH, 0.1% Pluronic F-127, 0.2% Ovalbumin. It is contemplated the solubility of the compounds and/or varying test occasions and/or assay conditions may account for variability of assay results.

Setting [8] is: Table 5A, enzyme first added to compounds, then ATP.
Setting [9] is: Table 5B, assay repeated under similar conditions.

T1 sequence (P43246 whole entry): as the sequence (P43246 whole entry) above
T1 sequence (P20585 whole entry): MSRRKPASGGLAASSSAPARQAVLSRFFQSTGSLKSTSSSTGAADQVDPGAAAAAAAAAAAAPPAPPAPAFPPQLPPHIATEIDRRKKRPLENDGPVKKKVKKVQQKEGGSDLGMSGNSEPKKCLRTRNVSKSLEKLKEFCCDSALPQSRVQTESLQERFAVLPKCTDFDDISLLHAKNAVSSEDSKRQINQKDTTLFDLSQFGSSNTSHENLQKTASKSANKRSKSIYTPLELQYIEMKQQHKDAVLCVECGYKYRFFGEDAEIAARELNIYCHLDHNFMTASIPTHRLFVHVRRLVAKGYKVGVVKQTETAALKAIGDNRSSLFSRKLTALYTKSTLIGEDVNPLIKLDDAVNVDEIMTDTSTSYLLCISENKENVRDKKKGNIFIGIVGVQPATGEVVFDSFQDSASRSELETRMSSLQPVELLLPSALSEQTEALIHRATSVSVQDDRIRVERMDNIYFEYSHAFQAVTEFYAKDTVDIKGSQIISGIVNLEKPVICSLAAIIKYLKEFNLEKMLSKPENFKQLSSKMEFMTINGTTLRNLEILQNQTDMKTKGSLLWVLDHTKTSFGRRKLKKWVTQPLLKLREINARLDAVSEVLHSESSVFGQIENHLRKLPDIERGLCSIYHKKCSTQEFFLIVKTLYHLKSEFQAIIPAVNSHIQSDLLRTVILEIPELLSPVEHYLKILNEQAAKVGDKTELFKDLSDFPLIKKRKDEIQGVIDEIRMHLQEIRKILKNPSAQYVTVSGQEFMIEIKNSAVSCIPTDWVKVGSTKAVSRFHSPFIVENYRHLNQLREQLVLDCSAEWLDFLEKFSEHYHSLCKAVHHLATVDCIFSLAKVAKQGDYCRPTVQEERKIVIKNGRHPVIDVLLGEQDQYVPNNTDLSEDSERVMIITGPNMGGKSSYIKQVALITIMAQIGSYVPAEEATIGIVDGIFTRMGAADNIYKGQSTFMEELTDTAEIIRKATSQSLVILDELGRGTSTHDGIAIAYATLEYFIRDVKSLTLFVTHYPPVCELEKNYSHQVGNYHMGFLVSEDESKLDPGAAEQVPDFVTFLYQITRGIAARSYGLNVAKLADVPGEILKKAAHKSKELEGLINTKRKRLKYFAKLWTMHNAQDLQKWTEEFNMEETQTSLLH

As to `Cc1cccc(Nc2nc(N3CCN(C)CC3)nc3nccnc23)c1` [Compound 6, 2-(4-methylpiperazin-1-yl)-N-(m-tolyl)pteridin-4-amine], the half-inhibitory concentration (IC50) is 26.2 µM in experiment [1]; 82.1 µM in experiment [2]; 47.1 µM in experiment [3]; more than 200 µM in experiment [4]; 41.5 µM in experiment [5] (setting [8]).
In the case of `CN1CCN(c2nc(NCc3ccccc3)c3nccnc3n2)CC1` [Compound 5, N-benzyl-2-(4-methylpiperazin-1-yl)pteridin-4-amine], the half-maximal inhibitory concentration (IC50) in experiment [1] was 31 µM; in experiment [2] it was 63.4 µM; in experiment [3], 148 µM; in experiment [4] it was more than 200 µM; in experiment [6], more than 200 µM; in experiment [5] (setting [8]), 44.8 µM.
`Cc1ccc(Nc2nc(N3CCN(C)CC3)nc3nccnc23)cc1Cl` [Compound 20, N-(3-chloro-4-methyl-phenyl)-2-(4-methylpiperazin-1-yl)pteridin-4-amine]: the IC50 in experiment [1] is 12.9 µM; in experiment [2] it was 109 µM; in experiment [3], 140 µM; in experiment [4], more than 200 µM; in experiment [6] it was 26.9 µM; in experiment [5] (setting [8]), 43.4 µM.
Take `CCN1CCN(c2nc(Nc3ccc(F)c(F)c3)c3nccnc3n2)CC1` [Compound 16, N-(3,4-difluorophenyl)-2-(4-ethylpiperazin-1-yl)pteridin-4-amine]: the 50% inhibitory concentration (IC50) was 122 µM in experiment [1]; more than 200 µM in experiment [2]; more than 200 µM in experiment [3]; more than 200 µM in experiment [4]; 42.7 µM in experiment [6]; more than 200 µM in experiment [5] (setting [8]).
Take `CCN1CCN(c2nc(Nc3ccc(F)c(C)c3)c3nccnc3n2)CC1` [Compound 3, 2-(4-ethylpiperazin-1-yl)-N-(4-fluoro-3-methyl-phenyl)pteridin-4-amine]: the half-maximal inhibitory concentration (IC50) in experiment [1] was 20.8 µM; in experiment [2], 42.5 µM; in experiment [3] it was 32.6 µM; in experiment [6], 42.3 µM; in experiment [5] (setting [8]), 24.5 µM.
For the compound `Cc1cc(Nc2nc(N3CCN(C)CC3)nc3nccnc23)ccc1C(N)=O` [Compound 41], the IC50 is 28 µM in experiment [3], 50 µM in experiment [7] and 50 µM in experiment [5] (setting [9]).
In the case of `COc1cccc(Nc2nc(N3CCN(C)CC3)nc3nccnc23)c1` [Compound 40], the IC50 in experiment [3] stood at 16 µM; in experiment [7], 34 µM; in experiment [5] (setting [8]), 43 µM; in experiment [5] (setting [9]) it was 61 µM.
Regarding `Cc1cnc2nc(N3CCN(C)CC3)nc(Nc3ccc(C)c(C)c3)c2n1` [Compound 38, N-(3,4-dimethylphenyl)-6-methyl-2-(4-methylpiperazin-1-yl)pteridin-4-amine], the concentration for half-maximal inhibition (IC50) in experiment [3] came out at 13 µM; in experiment [7], 10 µM; in experiment [5] (setting [8]), 19 µM; in experiment [5] (setting [9]), 9.5 µM.
With `COc1ccc(Nc2nc(N3CCN(C)CC3)nc3nccnc23)cc1Cl` [Compound 30], the IC50 in experiment [3] was 23 µM; in experiment [7], 25 µM; in experiment [5] (setting [8]) it was 23 µM; in experiment [5] (setting [9]), 28 µM.
With `CN1CCN(c2nc(NCc3cccc(S(C)(=O)=O)c3)c3nccnc3n2)CC1` [Compound 42], the IC50 is not below 200 µM in experiment [3], 119 µM in experiment [7] and 108 µM in experiment [5] (setting [9]).
Turning to `Cc1ccc(Nc2nc(N3CCN(C(C)C)CC3)nc3nccnc23)cc1C` [Compound 24], the half-maximal inhibitory concentration (IC50) in experiment [3] was 37 µM; in experiment [7], 60 µM; in experiment [5] (setting [8]), 24 µM; in experiment [5] (setting [9]), 25 µM.
On the same counts, the results for `CN1CCN(c2nc(Nc3cccc(C4CC4C(=O)O)c3)c3nccnc3n2)CC1` (single isomer, unassigned) [Compound 47] are 55 µM, 38 µM, 59 µM and 56 µM.
The matching figures for `Cc1ccc(CNc2nc(N3CCCN(C)CC3)nc3nccnc23)cc1C` [Compound 28]: 38 µM, 82 µM, 55 µM and 131 µM.

Usually IC50 stands for the concentration that inhibits the measured activity by half.
